According to paper PMC6994307 (Current Therapeutic Research, Clinical and Experimental, 2019):
Entries after “also recorded” stand apart in the source; their conditions may differ. Read-outs that look alike come from different tables or passages of the source.

What was measured:
human CB1 receptor [1] = molecular target: T1, human CB1 receptor (Homo sapiens, UniProt P21554); assay type: binding; conditions: for Effect on binding of agonist CP55,940 (in words): [3H]CP55,940 tracer, modulator 1 nM–10 µM
human CB1 receptor [2] = molecular target: T1, human CB1 receptor; assay type: binding; conditions: for cooperativity factor: [3H]SR141716A (1 nM) as orthosteric inverse agonist; for Effect on SR141716A binding (in words): [3H]SR141716A tracer, modulator 1 nM–10 µM
rats = conditions: cited from earlier work
CB1 [3] = conditions: cited from earlier work
CB1 [4] = conditions: cited from earlier work; remark: listed apart in the source
CB1 [5] = conditions: cited from earlier work; remark: listed apart in the source
[6] = Computational prediction of physicochemical properties and solubility
CB1 [7] = conditions: CP55,940 as the tracer; cited from earlier work
[8] = read-out: KB (equilibrium dissociation), [3H]CP55,940 (0.5 nM) as orthosteric ligand, 95% CI in parentheses, NB = no detectable binding with test compound up to 10 µM
[9] = on introducing ethanolamine into LDK1321 (6a) and LDK1324 (6b)

T1 sequence (P21554 whole entry): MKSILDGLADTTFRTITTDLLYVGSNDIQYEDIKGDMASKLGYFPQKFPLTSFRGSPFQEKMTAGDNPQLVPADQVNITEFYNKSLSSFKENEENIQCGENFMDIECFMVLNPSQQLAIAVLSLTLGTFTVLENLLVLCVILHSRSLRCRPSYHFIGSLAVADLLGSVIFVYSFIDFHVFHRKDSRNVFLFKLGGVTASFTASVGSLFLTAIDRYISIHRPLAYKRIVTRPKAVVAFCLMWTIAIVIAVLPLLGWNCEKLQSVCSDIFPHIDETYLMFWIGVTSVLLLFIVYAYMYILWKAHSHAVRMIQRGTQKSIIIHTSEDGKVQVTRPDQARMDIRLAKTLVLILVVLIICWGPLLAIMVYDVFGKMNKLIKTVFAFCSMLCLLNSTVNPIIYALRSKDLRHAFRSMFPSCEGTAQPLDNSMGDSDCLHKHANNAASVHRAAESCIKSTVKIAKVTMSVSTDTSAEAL

Structure (SMILES)	Kb (human CB1 receptor [1]) [nM]	cooperativity factor (human CB1 receptor [2])	Effect on SR141716A binding (in words) (human CB1 receptor [2])	Effect on binding of agonist CP55,940 (in words) (human CB1 receptor [1])	Kb (human CB1 receptor [1]; [8]) [nM]	also measured
N#Cc1ccc(NC(=O)Nc2cccc(-c3ccnc(Cl)n3)c2)cc1 [LDK1321, 1-(3-(2-Chloropyrimidin-4-yl)phenyl)-3-(4-cyanophenyl)urea]	85	< 1	robust, dose-dependent decrease			Effect on binding of agonist CP55,940 (in words) (human CB1 receptor [1]; listed as LDK1321 (6a)): enhanced the binding of agonist CP55,940 to some degree; also recorded: successful in enhancing the binding of agonist CP55,940
O=C(Nc1ccc(Cl)cc1)Nc1cccc(-c2cccc(N3CCCC3)n2)c1 [PSNCBAM-1, 1-(4-Chlorophenyl)-3-{3-[6-(pyrrolidin-1-yl)pyridin-2-yl]phenyl} urea]						Food intake and body weight (rats): reduced food intake and body weight; Effect in cAMP assay (CB1 [3]): noncompetitive, inhibitory effects; Effect on binding of the CB1 agonist CP55,940 (CB1 [4]): enhanced binding; Effect on binding of the inverse agonist SR141716A (CB1 [4]): reducing the binding; Effect in GTPγS assay (CB1 [5]): noncompetitive, inhibitory effects
N#Cc1ccc(NC(=O)Nc2cccc(-c3cccc(Cl)n3)c2)cc1 [LDK1324, 1-(3-(6-Chloropyridin-2-yl)phenyl)-3-(4-cyanophenyl)urea]	300	< 1	robust, dose-dependent decrease			Effect on binding of agonist CP55,940 (in words) (human CB1 receptor [1]; listed as LDK1324 (6b)): enhanced the binding of agonist CP55,940 to some degree
N#Cc1ccc(NC(=O)Nc2ccc3[nH]ccc3c2)cc1 [LDK1318, 1-(4-Cyanophenyl)-3-(1H-indol-5-yl)urea]				no binding	> 10000	
N#Cc1ccc(NC(=O)Nc2ccc3cc[nH]c3c2)cc1 [LDK1319, 1-(4-Cyanophenyl)-3-(1H-indol-6-yl)urea]				no binding	> 10000	
N#Cc1ccc(NC(=O)Nc2cccc(-c3cccc(NCCO)n3)c2)cc1 [LDK1325, 1-(4-Cyanophenyl)-3-(3-(6-((2-hydroxyethyl)amino)pyridin-2-yl)phenyl)urea]					> 10000	Enhancement of calculated intrinsic solubility [6, 9]: approximately 20 fold; Effect on binding of agonist CP55,940 (in words) (human CB1 receptor [1]; listed as LDK1325 (8b)): no binding; also recorded: lost its binding affinity
CN(C)c1ccc(NC(=O)Nc2ccc(C#N)cc2)cc1 [LDK1320, 1-(4-Cyanophenyl)-3-(4-(dimethylamino)phenyl)urea]	830					Enhancement of calculated intrinsic solubility ([6]; vs PSNCBAM-1, on reducing the number of rings to 2): about 400 fold; Effect on binding of agonist CP55,940 (in words) (human CB1 receptor [1]; listed as LDK1320 (12b)): enhanced the binding of agonist CP55,940 to some degree
N#Cc1ccc(NC(=O)Nc2cccc(-c3cccc(N4CCCC4)n3)c2)cc1						EC50 (CB1 [7]): 55 nM
CC(=O)Nc1cccc(NC(=O)Nc2ccc(C#N)cc2)c1 [LDK1317, N-(3-(3-(4-Cyanophenyl)ureido)phenyl)acetamide]	110			enhanced the binding of agonist CP55,940 to some degree		
N#Cc1ccc(NC(=O)Nc2cccc(-c3ccnc(NCCO)n3)c2)cc1 [LDK1323, 1-(4-Cyanophenyl)-3-(3-(2-((2-hydroxyethyl)amino)pyrimidin-4-yl)phenyl)urea]	200	< 1	modest decrease			Enhancement of calculated intrinsic solubility [6, 9]: approximately 20 fold; Effect on binding of agonist CP55,940 (in words) (human CB1 receptor [1]; listed as LDK1323 (8a)): enhanced the binding of agonist CP55,940 to some degree; also recorded: modest, but positive influence
